The source of these data is paper PMC12871559, “A general model for analysis of linear and hyperbolic enzyme inhibition mechanisms” (FEBS Open Bio, 2025).

Experiment in all cases: initial rates of NPβglc hydrolysis at […] nm, Lineweaver-Burk replots
What all share (format): biochemical

Test [1] addresses T1, Sfβgly (Spodoptera frugiperda, UniProt O61594, N249A).
T1 construct: only point mutants assayed here

The target in test [2] is T2, Sfβgly (Spodoptera frugiperda, UniProt O61594, N249Q).
T2 construct: only point mutants assayed here

Test [3] addresses T3, Sfβgly (Spodoptera frugiperda, UniProt O61594, F251A).
T3 construct: only point mutants assayed here

In test [4] the target is T4, Sfβgly (Spodoptera frugiperda, UniProt O61594, S247Y).
T4 construct: only point mutants assayed here

The structures appear in SMILES notation.

T1 sequence (O61594 17-509 limits assumed, stated change not applied): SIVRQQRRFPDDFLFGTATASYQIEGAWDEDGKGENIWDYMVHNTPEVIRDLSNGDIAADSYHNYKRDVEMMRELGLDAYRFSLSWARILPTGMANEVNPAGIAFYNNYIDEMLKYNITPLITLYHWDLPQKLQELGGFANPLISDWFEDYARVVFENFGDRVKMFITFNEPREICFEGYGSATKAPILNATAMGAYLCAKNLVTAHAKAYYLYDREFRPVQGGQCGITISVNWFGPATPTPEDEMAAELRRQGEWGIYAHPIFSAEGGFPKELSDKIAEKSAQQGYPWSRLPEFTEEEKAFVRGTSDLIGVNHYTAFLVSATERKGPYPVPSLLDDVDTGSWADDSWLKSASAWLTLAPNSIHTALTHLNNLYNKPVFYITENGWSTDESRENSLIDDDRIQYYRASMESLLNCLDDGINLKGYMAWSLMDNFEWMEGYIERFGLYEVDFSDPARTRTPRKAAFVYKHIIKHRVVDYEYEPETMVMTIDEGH
T2 sequence (O61594 17-509 limits assumed, stated change not applied): as above
T4 sequence (O61594 17-509 limits assumed, stated change not applied): as above
T3 sequence (O61594 17-509 limits assumed, stated change not applied): as above

The Ki is the equilibrium dissociation constant of an inhibitor or competing ligand from its target. On to `NC(CO)(CO)CO` [Tris, 2‐amino‐2‐(hydroxymethyl)‐1,3‐propanediol], for which the Ki in test [1] was 0.6 mM; in test [2], 32 mM; in test [3] it was 10 mM; in test [4] it was 71 mM.

For `c1c[nH]cn1` [imidazole], the inhibition constant (Ki) in test [1] worked out at 18 mM; in test [2], 39 mM; in test [3], 12 mM; in test [4] it was 35 mM.
